Results as given in ChEMBL document CHEMBL5321234, “Discovery of Thieno[3,2-d]pyrimidine derivatives as potent and selective inhibitors of ataxia telangiectasia mutated and Rad3 related (ATR) kinase” (Eur J Med Chem, 2023).

Columns and labels:
[1] = target: Serine/threonine-protein kinase ATR (Homo sapiens, UniProt Q13535); assay: Inhibition of ATR (unknown origin)
LoVo [2] = assay: Antiproliferative activity against human LoVo cells incubated for 72 hrs by CCK-8 assay; type: functional, cell-based
[3] = Half life in ICR mouse at 10 mg/kg, po measured upto 24 hrs by LC-MS/MS analysis; type: ADME, organism-based; details: in vivo
[4] = Tmax in ICR mouse at 10 mg/kg, po measured upto 24 hrs by LC-MS/MS analysis; type: ADME, organism-based; details: in vivo
[5] = Cmax in ICR mouse at 10 mg/kg, po measured upto 24 hrs by LC-MS/MS analysis; type: ADME, organism-based; set-up: time < 24 hrs, dose 10 mg/kg, route po; details: in vivo
[6] = MRT (0 to t) in ICR mouse at 10 mg/kg, po measured upto 24 hrs by LC-MS/MS analysis; type: ADME, organism-based; details: in vivo
[7] = MRT (0 to infinity) in ICR mouse at 10 mg/kg, po measured upto 24 hrs by LC-MS/MS analysis; type: ADME, organism-based; details: in vivo
[8] = AUC (0 to t) in ICR mouse at 10 mg/kg, po measured upto 24 hrs by LC-MS/MS analysis; type: ADME, organism-based; set-up: dose 10 mg/kg, time < 24 hrs, route po; details: in vivo
[9] = AUC (0 to infinity) in ICR mouse at 10 mg/kg, po measured upto 24 hrs by LC-MS/MS analysis; type: ADME, organism-based; set-up: dose 10 mg/kg, time < 24 hrs, route po; details: in vivo
[10] = Oral bioavailability in ICR mouse at 10 mg/kg measured upto 24 hrs by LC-MS/MS analysis; type: ADME, organism-based; details: in vivo
[11] = Initial plasma concentration in ICR mouse at 1 mg/kg, iv measured upto 24 hrs by LC-MS/MS analysis; type: ADME, organism-based
[12] = Half life in ICR mouse at 1 mg/kg, iv measured upto 24 hrs by LC-MS/MS analysis; type: ADME, organism-based; details: in vivo
[13] = Tmax in ICR mouse at 1 mg/kg, iv measured upto 24 hrs by LC-MS/MS analysis; type: ADME, organism-based; details: in vivo
[14] = Cmax in ICR mouse at 1 mg/kg, iv measured upto 24 hrs by LC-MS/MS analysis; type: ADME, organism-based; set-up: time < 24 hrs, dose 1 mg/kg, route iv; details: in vivo
[15] = MRT (0 to t) in ICR mouse at 1 mg/kg, iv measured upto 24 hrs by LC-MS/MS analysis; type: ADME, organism-based; details: in vivo
[16] = MRT (0 to infinity) in ICR mouse at 1 mg/kg, iv measured upto 24 hrs by LC-MS/MS analysis; type: ADME, organism-based; details: ICR, in vivo
[17] = AUC (0 to t) in ICR mouse at 1 mg/kg, iv measured upto 24 hrs by LC-MS/MS analysis; type: ADME, organism-based; set-up: dose 1 mg/kg, time < 24 hrs, route iv; details: in vivo
[18] = AUC (0 to infinity) in ICR mouse at 1 mg/kg, iv measured upto 24 hrs by LC-MS/MS analysis; type: ADME, organism-based; set-up: dose 1 mg/kg, time < 24 hrs, route iv; details: in vivo
[19] = Clearance in ICR mouse at 1 mg/kg, iv measured upto 24 hrs by LC-MS/MS analysis; type: ADME, organism-based; details: ICR, in vivo
[20] = Volume of distribution at steady state in ICR mouse at 1 mg/kg, iv measured upto 24 hrs by LC-MS/MS analysis; type: ADME, organism-based; details: ICR, in vivo, read-out: Vdss
HT-29 = assay: Antiproliferative activity against human HT-29 cells incubated for 72 hrs by CCK-8 assay; type: functional, cell-based; details: HT-29, 72 h
LoVo [21] = assay: Antitumor activity against human LoVo cells xenografted in BALB/c mouse assessed as tumor growth inhibition at 50 mg/kg, po bid 3 days on/4 days off administered for 21 consecutive days relative to control; type: functional; details: 504 h, time 21 day, read-out: TGI

Sequence of Serine/threonine-protein kinase ATR (Q13535 whole entry): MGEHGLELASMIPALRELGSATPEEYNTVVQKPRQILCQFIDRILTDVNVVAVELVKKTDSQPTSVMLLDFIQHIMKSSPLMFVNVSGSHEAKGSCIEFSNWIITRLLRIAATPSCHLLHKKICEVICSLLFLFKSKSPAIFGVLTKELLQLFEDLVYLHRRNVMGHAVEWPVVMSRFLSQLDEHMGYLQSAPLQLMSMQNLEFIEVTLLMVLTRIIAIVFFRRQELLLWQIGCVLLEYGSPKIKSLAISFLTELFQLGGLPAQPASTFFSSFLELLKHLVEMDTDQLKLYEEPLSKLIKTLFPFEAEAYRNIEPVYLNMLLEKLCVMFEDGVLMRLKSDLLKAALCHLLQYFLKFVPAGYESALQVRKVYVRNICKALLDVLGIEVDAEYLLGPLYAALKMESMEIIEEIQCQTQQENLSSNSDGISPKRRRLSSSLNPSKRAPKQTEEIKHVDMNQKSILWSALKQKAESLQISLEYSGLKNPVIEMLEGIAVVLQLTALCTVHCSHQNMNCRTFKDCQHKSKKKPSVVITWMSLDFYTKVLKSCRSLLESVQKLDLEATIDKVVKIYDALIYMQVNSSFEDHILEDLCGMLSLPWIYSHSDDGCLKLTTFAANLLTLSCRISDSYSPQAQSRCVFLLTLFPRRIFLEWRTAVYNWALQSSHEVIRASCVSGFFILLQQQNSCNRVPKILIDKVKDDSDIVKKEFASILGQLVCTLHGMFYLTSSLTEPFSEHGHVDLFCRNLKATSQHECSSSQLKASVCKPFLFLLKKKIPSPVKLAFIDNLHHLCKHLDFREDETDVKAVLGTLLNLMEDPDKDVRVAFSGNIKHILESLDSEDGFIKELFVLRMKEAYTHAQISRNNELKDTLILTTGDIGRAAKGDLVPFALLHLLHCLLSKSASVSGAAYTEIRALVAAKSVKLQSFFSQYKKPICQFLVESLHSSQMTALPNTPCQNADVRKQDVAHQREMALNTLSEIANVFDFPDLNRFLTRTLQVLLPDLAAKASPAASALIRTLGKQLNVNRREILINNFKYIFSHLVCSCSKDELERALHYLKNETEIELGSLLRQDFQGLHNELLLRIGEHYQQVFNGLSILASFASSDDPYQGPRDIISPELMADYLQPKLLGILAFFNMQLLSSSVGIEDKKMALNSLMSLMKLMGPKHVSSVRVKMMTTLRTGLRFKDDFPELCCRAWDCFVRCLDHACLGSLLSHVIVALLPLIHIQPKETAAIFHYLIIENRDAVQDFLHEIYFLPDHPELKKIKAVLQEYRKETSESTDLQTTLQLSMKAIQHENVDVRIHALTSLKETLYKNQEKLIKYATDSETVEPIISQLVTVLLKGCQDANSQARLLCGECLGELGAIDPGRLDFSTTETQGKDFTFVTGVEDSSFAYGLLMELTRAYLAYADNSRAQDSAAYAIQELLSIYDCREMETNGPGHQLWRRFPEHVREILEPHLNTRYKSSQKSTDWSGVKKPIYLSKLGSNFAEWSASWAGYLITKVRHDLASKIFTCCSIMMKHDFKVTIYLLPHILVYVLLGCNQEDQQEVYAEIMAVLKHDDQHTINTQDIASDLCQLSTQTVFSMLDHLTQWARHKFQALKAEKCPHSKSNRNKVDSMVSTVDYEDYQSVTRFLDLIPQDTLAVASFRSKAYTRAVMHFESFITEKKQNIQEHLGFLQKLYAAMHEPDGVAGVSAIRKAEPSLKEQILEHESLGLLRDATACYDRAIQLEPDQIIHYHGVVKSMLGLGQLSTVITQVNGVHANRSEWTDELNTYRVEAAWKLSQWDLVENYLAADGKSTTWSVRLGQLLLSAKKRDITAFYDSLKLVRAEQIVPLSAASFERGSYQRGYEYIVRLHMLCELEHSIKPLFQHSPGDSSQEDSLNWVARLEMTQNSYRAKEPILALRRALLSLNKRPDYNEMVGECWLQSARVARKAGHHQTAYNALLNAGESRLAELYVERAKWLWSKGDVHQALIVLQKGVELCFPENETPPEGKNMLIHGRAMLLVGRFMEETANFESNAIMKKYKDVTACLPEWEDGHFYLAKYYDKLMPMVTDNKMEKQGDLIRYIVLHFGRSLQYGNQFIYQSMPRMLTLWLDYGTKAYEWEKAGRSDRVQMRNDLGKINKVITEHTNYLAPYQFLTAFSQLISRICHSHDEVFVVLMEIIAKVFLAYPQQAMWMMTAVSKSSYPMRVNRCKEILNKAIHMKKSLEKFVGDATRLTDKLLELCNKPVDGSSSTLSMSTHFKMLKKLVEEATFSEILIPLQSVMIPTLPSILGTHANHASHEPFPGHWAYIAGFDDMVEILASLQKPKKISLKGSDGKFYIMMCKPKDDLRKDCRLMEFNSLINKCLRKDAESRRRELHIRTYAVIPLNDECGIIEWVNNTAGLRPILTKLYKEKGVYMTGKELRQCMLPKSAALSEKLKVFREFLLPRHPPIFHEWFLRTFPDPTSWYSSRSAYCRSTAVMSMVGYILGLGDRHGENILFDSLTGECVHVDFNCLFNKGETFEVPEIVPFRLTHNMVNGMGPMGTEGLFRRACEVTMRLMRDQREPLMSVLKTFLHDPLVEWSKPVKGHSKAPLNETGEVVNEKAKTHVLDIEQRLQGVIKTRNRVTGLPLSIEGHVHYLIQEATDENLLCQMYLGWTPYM

IC50 [1]	IC50 (LoVo [2])	SMILES	other results
19.2 nM	694 nM	CC(O)c1csc2c(N3CCOC[C@H]3C)nc(-c3ccnc4[nH]ccc34)nc12 (stereo partly specified)	
1 nM	64 nM	C[C@@H]1COCCN1c1nc(-n2c(N)nc3ccccc32)nc2c(S(C)(=O)=O)csc12	half-life [3]: 74.4 min; Tmax [4]: 15 min; Cmax [5]: 994 ng/mL; MRT last at 24 h [6]: 61.8 min; MRT inf [7]: 65.4 min; AUC(0-t) at 24 h [8]: 735 ng·h/mL; AUC(0-inf) [9]: 741 ng·h/mL; bioavailability [10]: 32.8%; C0 at 24 h [11]: 1080 ng/mL; half-life [12]: 7.8 min; Tmax [13]: 4.8 min; Cmax [14]: 698 ng/mL; MRT last at 24 h [15]: 9.6 min; MRT inf [16]: 10.8 min; AUC(0-t) at 24 h [17]: 221 ng·h/mL; AUC(0-inf) [18]: 226 ng·h/mL; clearance [19]: 74.9 mL/min/kg; Vd [20]: 0.827 L/kg
5.4 nM	398 nM	C[C@@H]1COCCN1c1nc(-c2ccnc3[nH]ccc23)nc2c(S(C)(=N)=O)csc12 (stereo partly specified)	
2 nM	381 nM	C[C@@H]1COCCN1c1nc(-n2c(N)nc3c(F)cccc32)nc2c(S(C)(=O)=O)csc12	
2.9 nM	527 nM	C[C@@H]1COCCN1c1nc(-c2cc(C(F)(F)F)cc3[nH]ccc23)nc2c(S(C)(=O)=O)csc12	
2.8 nM	177 nM	C[C@@H]1COCCN1c1nc(-n2c(C(F)F)nc3ccccc32)nc2c(S(C)(=O)=O)csc12	
6.2 nM	371 nM	CCP(=O)(CC)c1csc2c(N3CCOC[C@H]3C)nc(-n3c(NC)nc4ccccc43)nc12	
5 nM	437 nM	C[C@@H]1COCCN1c1nc(-c2c[nH]c3ccccc23)nc2c(S(C)(=O)=O)csc12	
3.6 nM	119 nM	C[C@@H]1COCCN1c1nc(-c2cc(Cl)cc3[nH]ccc23)nc2c(S(C)(=O)=O)csc12	
123 nM	> 10000 nM	C[C@@H]1COCCN1c1nc(-n2c(=O)[nH]c3ccccc32)nc2c(S(C)(=O)=O)csc12	
13.2 nM	125 nM	CC(=O)Nc1nc2ccccc2n1-c1nc(N2CCOC[C@H]2C)c2scc(S(C)(=O)=O)c2n1	
3.7 nM	360 nM	C[C@@H]1COCCN1c1nc(-n2c(N)nc3ccc(F)cc32)nc2c(S(C)(=O)=O)csc12	
59.2 nM	1890 nM	C[C@@H]1COCCN1c1nc(-c2cccc3c2CCN3)nc2c(S(C)(=O)=O)csc12	
7.9 nM	221 nM	C[C@@H]1COCCN1c1nc(-c2ccnc3[nH]ccc23)nc2c(C(C)(C)O)csc12	
4.7 nM	151 nM	C[C@@H]1COCCN1c1nc(-c2c(F)ncc3[nH]ccc23)nc2c(S(C)(=O)=O)csc12	
233 nM		C[C@@H]1COCCN1c1nc(-n2c(N(C)C)nc3ccccc32)nc2c(S(C)(=O)=O)csc12	
1.2 nM	73 nM	C[C@@H]1COCCN1c1nc(-n2c(N)nc3cc(F)ccc32)nc2c(S(C)(=O)=O)csc12	
3.1 nM	259 nM	C[C@@H]1COCCN1c1nc(-c2cc(F)cc3[nH]ccc23)nc2c(S(C)(=O)=O)csc12	
3.5 nM	635 nM	Cc1nc2ccccc2n1-c1nc(N2CCOC[C@H]2C)c2scc(S(C)(=O)=O)c2n1	
17.8 nM	3340 nM	C[C@@H]1COCCN1c1nc(-c2ccnc3[nH]ccc23)nc2ccsc12	
35.3 nM	931 nM	CC(=O)c1csc2c(N3CCOC[C@H]3C)nc(-c3ccnc4[nH]ccc34)nc12	

IC50 [1]	IC50 (LoVo [2])	SMILES	other results
3.8 nM	657 nM	CCc1nc2ccccc2n1-c1nc(N2CCOC[C@H]2C)c2scc(S(C)(=O)=O)c2n1	
113 nM		CSc1nc2ccccc2n1-c1nc(N2CCOC[C@H]2C)c2scc(S(C)(=O)=O)c2n1	
2.8 nM	107 nM	CNc1nc2ccccc2n1-c1nc(N2CCOC[C@H]2C)c2scc(S(=O)(=O)C3CC3)c2n1	
5.7 nM	224 nM	CNc1nc2ccccc2n1-c1nc(N2CCOC[C@H]2C)c2scc(S(=O)(=O)C(C)C)c2n1	
5.5 nM	117 nM	CNc1nc2ccccc2n1-c1nc(N2CCOC[C@H]2C)c2scc(S(C)(=N)=O)c2n1 (stereo partly specified)	
24.2 nM	1500 nM	CNc1nc2ccccc2n1-c1nc(N2CCOC[C@H]2C)c2scc(SC)c2n1	
3.1 nM	266 nM	C[C@@H]1COCCN1c1nc(-c2cccc3[nH]ccc23)nc2c(S(C)(=O)=O)csc12	
8.5 nM	264 nM	CNc1nc2ccccc2n1-c1nc(N2CCOC[C@H]2C)c2scc([S+](C)[O-])c2n1 (stereo partly specified)	
5.8 nM	111 nM	C[C@@H]1COCCN1c1nc(-c2ccnc3[nH]ccc23)nc2c(S(C)(=O)=O)csc12	
31.5 nM	370 nM	C[C@@H]1COCCN1c1nc(-c2ccnc3[nH]ccc23)nc2c(C(N)=O)csc12	
9.6 nM	391 nM	C[C@@H]1COCCN1c1nc(-c2cccc3[nH]ncc23)nc2c(S(C)(=O)=O)csc12	
4.5 nM	89 nM	CCS(=O)(=O)c1csc2c(N3CCOC[C@H]3C)nc(-n3c(NC)nc4ccccc43)nc12	
16.8 nM	626 nM	CCCS(=O)(=O)c1csc2c(N3CCOC[C@H]3C)nc(-n3c(NC)nc4ccccc43)nc12	
6.2 nM	113 nM	CNc1nc2ccccc2n1-c1nc(N2CCOC[C@H]2C)c2scc(P(C)(C)=O)c2n1	
47 nM		C[C@@H]1COCCN1c1nc(-n2nnc3ccccc32)nc2c(S(C)(=O)=O)csc12	
108 nM		C=C(C)c1csc2c(N3CCOC[C@H]3C)nc(-c3ccnc4[nH]ccc34)nc12	
159 nM		C[C@@H]1COCCN1c1nc(-c2cccc3c2CC(=O)N3)nc2c(S(C)(=O)=O)csc12	
2.3 nM	648 nM	C[C@@H]1COCCN1c1nc(-n2cnc3ccccc32)nc2c(S(C)(=O)=O)csc12	
52.6 nM	2510 nM	C[C@@H]1COCCN1c1nc(-c2ccnc3[nH]ccc23)nc2c(C#N)csc12	
		CC(C)n1c(=O)n(C)c2cnc3cc(F)c(-c4ccc(OCCCN5CCCCC5)nc4)cc3c21 [AZD-1390]	IC50 (HT-29): > 10000 nM
	41 nM	C[C@@H]1COCCN1c1cc(-c2ccnn2C)c2ccnc(-c3ccn[nH]3)c2n1 [ELIMUSERTIB]	inhibition in vivo at 50 mg/kg (LoVo [21]): 65%
